Laboratory results as given in publication PMC5540273, “Progress towards a public chemogenomic set for protein kinases and a call for contributions” (PLoS ONE, 2017).

Experiments:
Test in all cases: KINOMEscan competition binding
CASK = biological target: T1, CASK (Homo sapiens, UniProt O14936); conditions: read-out: %Inh CASK
T1 sequence (O14936 1-926): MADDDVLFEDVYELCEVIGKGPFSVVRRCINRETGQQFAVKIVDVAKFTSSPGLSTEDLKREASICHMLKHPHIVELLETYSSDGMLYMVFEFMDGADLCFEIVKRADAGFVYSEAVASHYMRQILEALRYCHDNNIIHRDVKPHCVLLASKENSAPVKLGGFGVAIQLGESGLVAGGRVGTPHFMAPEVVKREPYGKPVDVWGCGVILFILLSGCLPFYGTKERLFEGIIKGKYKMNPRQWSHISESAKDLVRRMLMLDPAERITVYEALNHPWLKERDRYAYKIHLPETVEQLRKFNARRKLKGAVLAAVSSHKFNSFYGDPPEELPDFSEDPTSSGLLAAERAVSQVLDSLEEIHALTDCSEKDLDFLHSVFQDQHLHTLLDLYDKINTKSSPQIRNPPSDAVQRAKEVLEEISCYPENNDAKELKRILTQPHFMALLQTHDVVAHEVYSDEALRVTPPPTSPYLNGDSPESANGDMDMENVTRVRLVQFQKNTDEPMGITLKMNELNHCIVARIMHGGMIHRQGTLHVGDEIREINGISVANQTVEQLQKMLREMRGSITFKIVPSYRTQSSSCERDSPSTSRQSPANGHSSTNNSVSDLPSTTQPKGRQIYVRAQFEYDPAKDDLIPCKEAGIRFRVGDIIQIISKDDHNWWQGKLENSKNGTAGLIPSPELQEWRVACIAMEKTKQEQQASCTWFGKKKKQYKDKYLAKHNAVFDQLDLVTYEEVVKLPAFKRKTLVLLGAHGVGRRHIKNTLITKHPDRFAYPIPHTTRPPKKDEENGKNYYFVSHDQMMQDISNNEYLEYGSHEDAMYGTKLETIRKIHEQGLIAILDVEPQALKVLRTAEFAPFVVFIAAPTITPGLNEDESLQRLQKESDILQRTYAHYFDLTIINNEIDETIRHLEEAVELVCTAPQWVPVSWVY

CDK3 = CDK3 (Homo sapiens, UniProt Q00526); conditions: read-out: %Inh CDK3
CSNK1G2 = CSNK1G2 (Homo sapiens, UniProt P78368); conditions: read-out: %Inh CSNK1G2
EPHB1 = biological target: T2, EPHB1 (Homo sapiens, UniProt P54762); conditions: read-out: %Inh EPHB1
T2 sequence (P54762 18-984): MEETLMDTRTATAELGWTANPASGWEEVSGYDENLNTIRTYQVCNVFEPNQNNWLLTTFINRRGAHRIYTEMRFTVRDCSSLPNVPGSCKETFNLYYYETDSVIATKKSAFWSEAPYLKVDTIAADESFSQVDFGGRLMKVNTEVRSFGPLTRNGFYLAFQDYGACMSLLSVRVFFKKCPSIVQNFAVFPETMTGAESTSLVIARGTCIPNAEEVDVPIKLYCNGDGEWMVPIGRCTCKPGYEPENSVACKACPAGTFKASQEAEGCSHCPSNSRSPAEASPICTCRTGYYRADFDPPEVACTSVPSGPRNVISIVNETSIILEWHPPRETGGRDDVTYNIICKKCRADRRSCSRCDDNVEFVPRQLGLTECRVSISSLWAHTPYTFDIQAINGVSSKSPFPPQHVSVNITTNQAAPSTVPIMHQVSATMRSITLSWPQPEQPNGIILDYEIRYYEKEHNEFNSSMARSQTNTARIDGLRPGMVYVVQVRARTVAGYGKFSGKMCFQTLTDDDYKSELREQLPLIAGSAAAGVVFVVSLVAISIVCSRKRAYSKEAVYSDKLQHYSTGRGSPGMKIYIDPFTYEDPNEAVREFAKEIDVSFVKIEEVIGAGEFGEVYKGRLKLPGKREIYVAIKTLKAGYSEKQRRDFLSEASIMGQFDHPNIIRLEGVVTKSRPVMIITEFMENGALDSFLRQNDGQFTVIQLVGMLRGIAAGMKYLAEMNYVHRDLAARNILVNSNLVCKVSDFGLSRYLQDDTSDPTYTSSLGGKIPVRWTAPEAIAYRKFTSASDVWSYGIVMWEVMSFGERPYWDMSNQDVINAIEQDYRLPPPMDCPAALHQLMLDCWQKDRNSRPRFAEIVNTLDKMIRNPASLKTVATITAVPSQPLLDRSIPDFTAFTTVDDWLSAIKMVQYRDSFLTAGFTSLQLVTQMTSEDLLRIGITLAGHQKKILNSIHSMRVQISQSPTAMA

HASPIN = biological target: T3, HASPIN (Homo sapiens, UniProt Q8TF76); conditions: read-out: %Inh HASPIN
T3 sequence (Q8TF76 1-798): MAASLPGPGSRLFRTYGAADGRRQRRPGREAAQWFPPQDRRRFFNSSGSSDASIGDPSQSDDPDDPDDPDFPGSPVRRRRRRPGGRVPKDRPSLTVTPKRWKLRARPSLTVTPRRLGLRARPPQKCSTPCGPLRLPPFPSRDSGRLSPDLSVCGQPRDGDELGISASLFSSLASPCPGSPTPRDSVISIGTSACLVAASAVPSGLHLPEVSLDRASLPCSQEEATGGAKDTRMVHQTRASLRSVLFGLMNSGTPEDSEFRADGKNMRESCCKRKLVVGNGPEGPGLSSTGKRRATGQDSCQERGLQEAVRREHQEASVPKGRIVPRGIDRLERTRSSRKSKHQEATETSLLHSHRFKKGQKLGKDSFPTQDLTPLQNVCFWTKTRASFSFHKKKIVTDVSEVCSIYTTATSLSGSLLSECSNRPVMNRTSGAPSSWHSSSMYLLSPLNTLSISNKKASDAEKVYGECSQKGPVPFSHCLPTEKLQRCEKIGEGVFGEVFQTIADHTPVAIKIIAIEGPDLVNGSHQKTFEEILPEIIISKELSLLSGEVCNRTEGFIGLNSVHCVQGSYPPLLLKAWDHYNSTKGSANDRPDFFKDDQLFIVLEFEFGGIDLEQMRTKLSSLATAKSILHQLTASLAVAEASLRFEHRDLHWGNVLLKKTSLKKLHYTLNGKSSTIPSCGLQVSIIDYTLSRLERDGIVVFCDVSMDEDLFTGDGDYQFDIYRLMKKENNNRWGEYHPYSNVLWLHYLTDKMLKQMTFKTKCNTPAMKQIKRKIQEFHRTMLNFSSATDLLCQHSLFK

HIPK3 = HIPK3 (Homo sapiens, UniProt Q9H422); conditions: read-out: %Inh HIPK3
IGF1R = IGF1R (Homo sapiens, UniProt P08069); conditions: read-out: %Inh IGF1R
IGF1R, sequence (P08069 31-1367): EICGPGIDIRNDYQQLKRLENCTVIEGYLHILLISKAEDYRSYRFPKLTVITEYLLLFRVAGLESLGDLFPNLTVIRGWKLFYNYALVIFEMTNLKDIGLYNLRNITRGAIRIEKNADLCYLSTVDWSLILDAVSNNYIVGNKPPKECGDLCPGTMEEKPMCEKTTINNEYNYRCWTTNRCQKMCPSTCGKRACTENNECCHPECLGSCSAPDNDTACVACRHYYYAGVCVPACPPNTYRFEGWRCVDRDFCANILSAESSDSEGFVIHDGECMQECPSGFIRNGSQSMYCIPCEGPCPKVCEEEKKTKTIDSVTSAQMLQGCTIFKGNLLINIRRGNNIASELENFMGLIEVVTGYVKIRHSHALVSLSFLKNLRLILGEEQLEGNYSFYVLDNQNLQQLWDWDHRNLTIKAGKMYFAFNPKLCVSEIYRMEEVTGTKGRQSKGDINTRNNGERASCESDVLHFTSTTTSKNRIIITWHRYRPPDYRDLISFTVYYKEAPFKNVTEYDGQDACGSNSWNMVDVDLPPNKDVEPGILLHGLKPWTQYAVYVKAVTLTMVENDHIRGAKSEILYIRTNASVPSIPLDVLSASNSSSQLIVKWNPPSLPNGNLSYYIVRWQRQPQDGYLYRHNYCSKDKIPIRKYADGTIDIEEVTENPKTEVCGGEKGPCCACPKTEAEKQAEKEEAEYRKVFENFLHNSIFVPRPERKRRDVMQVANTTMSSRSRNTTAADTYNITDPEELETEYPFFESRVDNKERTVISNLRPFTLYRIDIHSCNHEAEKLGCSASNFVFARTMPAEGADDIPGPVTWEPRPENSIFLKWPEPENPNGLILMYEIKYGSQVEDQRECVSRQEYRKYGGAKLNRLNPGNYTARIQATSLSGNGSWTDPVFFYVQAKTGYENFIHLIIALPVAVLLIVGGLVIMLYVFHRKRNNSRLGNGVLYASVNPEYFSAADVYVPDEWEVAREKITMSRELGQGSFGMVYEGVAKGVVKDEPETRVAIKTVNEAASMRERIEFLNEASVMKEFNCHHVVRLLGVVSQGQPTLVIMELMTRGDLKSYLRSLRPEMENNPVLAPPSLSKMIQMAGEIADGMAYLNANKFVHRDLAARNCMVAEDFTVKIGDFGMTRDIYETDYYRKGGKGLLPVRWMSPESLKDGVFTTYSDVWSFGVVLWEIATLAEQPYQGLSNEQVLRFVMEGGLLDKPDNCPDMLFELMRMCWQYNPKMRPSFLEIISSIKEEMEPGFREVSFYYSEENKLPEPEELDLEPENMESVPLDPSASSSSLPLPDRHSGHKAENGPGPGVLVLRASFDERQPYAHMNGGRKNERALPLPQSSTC

CSNK1G2, sequence (P78368 whole entry): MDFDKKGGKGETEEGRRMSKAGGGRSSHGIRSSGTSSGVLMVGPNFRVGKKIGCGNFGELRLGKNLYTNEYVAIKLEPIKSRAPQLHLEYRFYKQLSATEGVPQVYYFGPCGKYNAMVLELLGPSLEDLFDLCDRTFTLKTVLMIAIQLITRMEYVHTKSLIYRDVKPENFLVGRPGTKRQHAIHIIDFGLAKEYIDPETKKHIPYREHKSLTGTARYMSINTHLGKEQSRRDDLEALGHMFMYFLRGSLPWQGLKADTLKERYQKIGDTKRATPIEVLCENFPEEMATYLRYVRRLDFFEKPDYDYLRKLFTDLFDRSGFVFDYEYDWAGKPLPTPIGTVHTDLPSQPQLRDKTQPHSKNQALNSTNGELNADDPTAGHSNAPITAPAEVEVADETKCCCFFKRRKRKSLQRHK
CDK3, sequence (Q00526 whole entry): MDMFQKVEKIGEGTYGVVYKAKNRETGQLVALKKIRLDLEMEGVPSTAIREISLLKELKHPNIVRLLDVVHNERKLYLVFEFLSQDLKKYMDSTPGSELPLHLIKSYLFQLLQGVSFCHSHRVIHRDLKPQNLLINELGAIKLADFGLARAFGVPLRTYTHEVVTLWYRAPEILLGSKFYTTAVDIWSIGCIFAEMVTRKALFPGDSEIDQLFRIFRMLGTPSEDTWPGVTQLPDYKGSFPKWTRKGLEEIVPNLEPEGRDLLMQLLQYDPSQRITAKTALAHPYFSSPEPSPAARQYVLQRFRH
HIPK3, sequence (Q9H422 whole entry): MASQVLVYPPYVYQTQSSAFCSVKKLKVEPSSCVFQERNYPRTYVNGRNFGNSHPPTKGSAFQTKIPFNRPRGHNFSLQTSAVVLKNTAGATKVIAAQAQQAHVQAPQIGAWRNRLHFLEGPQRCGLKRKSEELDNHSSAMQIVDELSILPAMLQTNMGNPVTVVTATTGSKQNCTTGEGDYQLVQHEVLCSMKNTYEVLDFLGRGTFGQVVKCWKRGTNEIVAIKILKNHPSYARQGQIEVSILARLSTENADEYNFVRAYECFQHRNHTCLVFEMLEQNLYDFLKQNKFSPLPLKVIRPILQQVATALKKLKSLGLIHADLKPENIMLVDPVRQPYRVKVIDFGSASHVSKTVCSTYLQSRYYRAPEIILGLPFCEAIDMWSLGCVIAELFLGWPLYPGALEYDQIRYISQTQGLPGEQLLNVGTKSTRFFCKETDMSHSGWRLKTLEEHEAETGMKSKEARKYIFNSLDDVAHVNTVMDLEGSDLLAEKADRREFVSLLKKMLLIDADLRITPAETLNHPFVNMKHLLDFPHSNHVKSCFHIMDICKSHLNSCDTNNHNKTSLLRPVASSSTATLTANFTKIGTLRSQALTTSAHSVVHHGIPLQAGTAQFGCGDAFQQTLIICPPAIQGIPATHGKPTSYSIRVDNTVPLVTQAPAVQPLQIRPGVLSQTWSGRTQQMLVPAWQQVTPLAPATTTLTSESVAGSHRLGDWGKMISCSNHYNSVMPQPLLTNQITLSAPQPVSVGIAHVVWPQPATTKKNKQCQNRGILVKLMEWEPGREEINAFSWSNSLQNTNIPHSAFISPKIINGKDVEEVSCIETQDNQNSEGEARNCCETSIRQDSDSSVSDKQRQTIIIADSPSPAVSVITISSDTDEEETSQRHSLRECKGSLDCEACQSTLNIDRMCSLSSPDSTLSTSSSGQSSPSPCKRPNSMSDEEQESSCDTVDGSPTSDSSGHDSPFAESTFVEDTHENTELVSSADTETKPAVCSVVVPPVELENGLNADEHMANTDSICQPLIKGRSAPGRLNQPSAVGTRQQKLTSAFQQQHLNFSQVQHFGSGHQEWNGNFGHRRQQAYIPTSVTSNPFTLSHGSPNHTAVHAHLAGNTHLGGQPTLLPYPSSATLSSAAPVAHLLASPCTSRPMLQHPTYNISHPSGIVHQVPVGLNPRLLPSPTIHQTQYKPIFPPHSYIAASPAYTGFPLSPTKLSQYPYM

Molecule `CS(=O)(=O)Cc1ccc(Nc2nccc(-c3c(-c4cccc(NC(=O)C5CCCCC5)c4)nn4ncccc34)n2)cc1` [UNC10225159A] has an inhibition at 1 µM (CASK) of 34%, an inhibition at 1 µM (CDK3) of 0% and an inhibition at 1 µM (CSNK1G2) of 5%. The inhibition at 1 µM (EPHB1) was 2%, the inhibition at 1 µM (HASPIN) was 17% and the inhibition at 1 µM (HIPK3) was 23%. The inhibition at 1 µM (IGF1R) was 68%.

`Cn1cc(-c2cnc(N)c3c(-c4ccc5c(c4)CCN5C(=O)Cc4ccccc4)csc23)cn1` [UNC10225012A] showed an inhibition at 1 µM (CASK) of 23%, an inhibition at 1 µM (CDK3) of 1% and an inhibition at 1 µM (CSNK1G2) of 7%. For the same molecule, the inhibition at 1 µM (EPHB1) was 6%, the inhibition at 1 µM (HASPIN) was 0% and the inhibition at 1 µM (HIPK3) was 7%. For the same molecule, the inhibition at 1 µM (IGF1R) was 0%.

`O=c1cc(N2CCOCC2)nc2n(Cc3cccc(Cl)c3Cl)c(C3CC3)nn12` [UNC10225469A] was tested, and the inhibition at 1 µM (CASK) was 26%, the inhibition at 1 µM (CDK3) was 5% and the inhibition at 1 µM (CSNK1G2) was 5%. For the same molecule, the inhibition at 1 µM (EPHB1) was 0%, the inhibition at 1 µM (HASPIN) was 0% and the inhibition at 1 µM (HIPK3) was 16%. The inhibition at 1 µM (IGF1R) was 0%.

Work on `COc1cccc(OC)c1C(=O)Nc1cccc(-c2nn3ccccc3c2-c2ccnc(Nc3cccc(F)c3)n2)c1` [UNC10225310A] yielded an inhibition at 1 µM (CASK) of 15%, an inhibition at 1 µM (CDK3) of 0% and an inhibition at 1 µM (CSNK1G2) of 17%. The inhibition at 1 µM (EPHB1) was 100%, the inhibition at 1 µM (HASPIN) was 0% and the inhibition at 1 µM (HIPK3) was 0%. For the same molecule, the inhibition at 1 µM (IGF1R) was 7%.

For `Cc1ccc(NC(=O)Nc2cccc(C(F)(F)F)c2)cc1` [UNC10225187A], the inhibition at 1 µM (CASK) was 15%, the inhibition at 1 µM (CDK3) was 0% and the inhibition at 1 µM (CSNK1G2) was 1%. For the same molecule, the inhibition at 1 µM (EPHB1) was 5%, the inhibition at 1 µM (HASPIN) was 12% and the inhibition at 1 µM (HIPK3) was 0%. For the same molecule, the inhibition at 1 µM (IGF1R) was 0%.
